Publication PMC6979384, “Characterization of the plant homeodomain (PHD) reader family for their histone tail interactions” (Epigenetics & Chromatin, 2020)

What was measured:
Assay in all cases: Histone peptide microarray
Type in all cases: binding, human
TAF3 = conditions: GST-tagged TAF3; sheet Array Heatmap; each array performed twice, total n = 4
How it was run: (§1)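 Binding read as mean relative signal from 4 replicates; microarray held 293 synthetic histone peptides with single or combinatorial PTMs. Each GST-tagged PHD reader was applied at 0.5 μM using the optimized Petell protocol.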

PHF2 = conditions: GST-tagged PHF2; sheet Array Heatmap; each array performed twice, total n = 4
How it was run: as §1

KDM7A = conditions: GST-tagged KDM7A; sheet Array Heatmap; each array performed twice, total n = 4
How it was run: as §1

SP140L = conditions: GST-tagged SP140L; sheet Array Heatmap; each array performed twice, total n = 4
How it was run: as §1

BAZ2B = conditions: GST-tagged BAZ2B; sheet Array Heatmap; each array performed twice, total n = 4
How it was run: as §1

KDM4C (TTP) = conditions: GST-tagged KDM4C (TTP = Tandem Tudor domain + PHD); sheet Array Heatmap; each array performed twice, total n = 4
How it was run: as §1

DIDO1 = conditions: GST-tagged DIDO1; sheet Array Heatmap; each array performed twice, total n = 4
How it was run: as §1

CHD5 (PPCC) = conditions: GST-tagged CHD5 (PPCC = Dual PHD + Dual Chromodomain); sheet Array Heatmap; each array performed twice, total n = 4
How it was run: as §1

KDM5B (3) = conditions: GST-tagged KDM5B (3); sheet Array Heatmap; each array performed twice, total n = 4
How it was run: as §1

PHF23 = conditions: GST-tagged PHF23; sheet Array Heatmap; each array performed twice, total n = 4
How it was run: as §1

KDM5B (1) = conditions: GST-tagged KDM5B (1); sheet Array Heatmap; each array performed twice, total n = 4
How it was run: as §1

RAG2 = conditions: GST-tagged RAG2; sheet Array Heatmap; each array performed twice, total n = 4
How it was run: as §1

CHD4 (PPCC) = conditions: for Array Heatmap signal (histone peptide microarray): GST-tagged CHD4 (PPCC = Dual PHD + Dual Chromodomain), sheet Array Heatmap, each array performed twice, total n = 4
How it was run: as §1

ING1 = conditions: GST-tagged ING1; sheet Array Heatmap; each array performed twice, total n = 4
How it was run: as §1

BPTF (PB) = conditions: GST-tagged BPTF (PB = PHD + Bromodomain); sheet Array Heatmap; each array performed twice, total n = 4
How it was run: as §1

MORC3 (CW) = conditions: GST-tagged MORC3 (CW = CW-type Zn-finger); sheet Array Heatmap; each array performed twice, total n = 4
How it was run: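 GST-tagged PHD finger readers were expressed, purified and applied at 0.5 μM to a microarray of 293 synthetic histone peptides carrying single or combinatorial PTMs, using an optimized protocol. Binding signals are averages with standard deviation from 4 replicates.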

KDM5A (1) = conditions: GST-tagged KDM5A (1); sheet Array Heatmap; each array performed twice, total n = 4
How it was run: as §1

PHF8 = conditions: GST-tagged PHF8; sheet Array Heatmap; each array performed twice, total n = 4
How it was run: as §1

CHD5 (PCC) = conditions: GST-tagged CHD5 (PCC = PHD + Dual Chromodomain); sheet Array Heatmap; each array performed twice, total n = 4
How it was run: as §1

ING5 = conditions: GST-tagged ING5; sheet Array Heatmap; each array performed twice, total n = 4
How it was run: as §1

DPF2 (PPC2W2) = conditions: GST-tagged DPF2 (PPC2W2 = Dual PHD + C2W2-type Zn-finger); sheet Array Heatmap; each array performed twice, total n = 4
How it was run: as §1

TRIM66 (PB) = conditions: GST-tagged TRIM66 (PB = PHD + Bromodomain); sheet Array Heatmap; each array performed twice, total n = 4
How it was run: as §1

PHF21A = conditions: GST-tagged PHF21A; sheet Array Heatmap; each array performed twice, total n = 4
How it was run: as §1

ING4 = conditions: GST-tagged ING4; sheet Array Heatmap; each array performed twice, total n = 4
How it was run: as §1

PHRF1 (RP) = conditions: GST-tagged PHRF1 (RP); sheet Array Heatmap; each array performed twice, total n = 4
How it was run: as §1

KDM5A (3) = conditions: GST-tagged KDM5A (3); sheet Array Heatmap; each array performed twice, total n = 4
How it was run: as §1

Row | Substance | Array Heatmap signal (histone peptide microarray) (TAF3) | Array Heatmap signal (histone peptide microarray) (PHF2) | Array Heatmap signal (histone peptide microarray) (KDM7A) | Array Heatmap signal (histone peptide microarray) (SP140L) | Array Heatmap signal (histone peptide microarray) (BAZ2B) | Array Heatmap signal (histone peptide microarray) (KDM4C (TTP)) | Array Heatmap signal (histone peptide microarray) (DIDO1) | Array Heatmap signal (histone peptide microarray) (CHD5 (PPCC)) | Array Heatmap signal (histone peptide microarray) (KDM5B (3)) | Array Heatmap signal (histone peptide microarray) (PHF23) | Array Heatmap signal (histone peptide microarray) (KDM5B (1)) | Array Heatmap signal (histone peptide microarray) (RAG2) | Array Heatmap signal (histone peptide microarray) (CHD4 (PPCC)) | Array Heatmap signal (histone peptide microarray) (ING1) | Array Heatmap signal (histone peptide microarray) (BPTF (PB)) | Array Heatmap signal (histone peptide microarray) (MORC3 (CW)) | Array Heatmap signal (histone peptide microarray) (KDM5A (1)) | Array Heatmap signal (histone peptide microarray) (PHF8) | Array Heatmap signal (histone peptide microarray) (CHD5 (PCC)) | Array Heatmap signal (histone peptide microarray) (ING5) | also measured
1 | H3K9me3: H3 1-20 [Peptide H3K9me3] | 0.2799 | 0.5168 | 0.3458 | 0.3305 | 0.4699 | 0.4665 | 0.7537 | 0.5526 | 0.5156 | 0.5665 | 0.6712 | 0.2542 | 0.5917 | 0.5591 | 0.3464 | 0.4553 | 0.4576 | 0.3233 | 0.824 | 0.3535 | relative binding (CHD4 (PPCC); peptide microarray, reader 0.5 μM, n = 4): no difference in binding; Array Heatmap signal (histone peptide microarray) (DPF2 (PPC2W2)): 0.7027; Array Heatmap signal (histone peptide microarray) (TRIM66 (PB)): 0.7052; Array Heatmap signal (histone peptide microarray) (PHF21A): 0.4617; Array Heatmap signal (histone peptide microarray) (ING4): 0.4493; Array Heatmap signal (histone peptide microarray) (PHRF1 (RP)): 0.7596; Array Heatmap signal (histone peptide microarray) (KDM5A (3)): 0.563
2 | H3S10p: H3 1-20 [Peptide H3S10p] | 0.3504 | 0.4863 | 0.4084 | 0.3768 | 0.5109 | 0.5402 | 0.6622 | 0.5995 | 0.5217 | 0.5413 | 0.6981 | 0.2741 | 0.6003 | 0.5325 | 0.3684 | 0.4872 | 0.5146 | 0.4129 | 0.8638 | 0.3966 | Array Heatmap signal (histone peptide microarray) (DPF2 (PPC2W2)): 0.7013; Array Heatmap signal (histone peptide microarray) (TRIM66 (PB)): 0.7641; Array Heatmap signal (histone peptide microarray) (PHF21A): 0.5054; Array Heatmap signal (histone peptide microarray) (ING4): 0.4889; Array Heatmap signal (histone peptide microarray) (PHRF1 (RP)): 0.5714; Array Heatmap signal (histone peptide microarray) (KDM5A (3)): 0.4717
